Values quoted from earlier work, collected in patent US20110195928A1, “Administration of Copper to an Animal” (priority 2001, published 2011).

Settings: general statement of the description

Solubility in water: insoluble
Substance: copper edtate [edtates]
